The text below walks through data of patent US20220135942A1, “CULTURED TISSUE AND METHOD FOR PRODUCING SAME” (NAGASAKI UNIVERSITY, priority 2019, published 2022).

Data set [1] deals with bile ducts formed from rCLiPs only. Nature of the data set: CLF added to rCLiP bile ducts only, without primary hepatocytes (negative control, Example 1). Format: in vitro ADME, rat. As to conditions: no hepatocytes, 2 hours after CLF addition, FIG. 3B. As for the experimental part: The appearance 2 hours after the addition of the CLF solution was observed through the phase-contrast microscope and the fluorescence microscope (FIG. 3B).

Data set [2] shares this test system. Kind of data set: CLF incubation of rCLiP bile ducts only, without human hepatocytes (negative control, Example 2). The data set is classed as in vitro ADME, rat. The note with it: no human hepatocytes, 30 min incubation in HBSS containing CLF, observed immediately, 4 and 24 hours after washing, FIG. 6B. As for the experimental part:
After the incubation, the cells were washed with MSS not containing CLF, and the appearances of the cells immediately, 4 hours, and 24 hours after the washing were observed through a phase-contrast microscope and a fluorescence microscope (FIG. 6B).

In data set [3] the test system is bile ducts formed from the rCLiPs cocultured with rat primary hepatocytes. Kind of data set: CLF transfer to bile ducts in coculture of rCLiP bile ducts and rat primary hepatocytes. The data set is classed as in vitro ADME. The note with it: rat primary hepatocytes cocultured 3 days; observed 2, 24 and 72 hours after CLF addition; excitation 480 nm; FIG. 3A. The text has this: (§1) It can be confirmed by various methods using labeled compounds that the glandular cavities and the ducts are functionally connected in the cultured tissue produced by the above-mentioned method. For example, a compound obtaining by labeling a compound the behavior of which in the glandular cavities and the ducts is known and which are objects to be confirmed can be used. The functional connection between the glandular cavities and the ducts can be specifically confirmed by confirming whether the labeled secretion or the analogue thereof is incorporated into the glandular cells, and the labeled secretion or the analogue thereof secreted from the glandular cells can be detected from the ducts. […] When CLF is incorporated into the hepatocytes cocultured with the bile ducts, and the fluorescence of CLF is detected from the bile ducts, it can be confirmed that CLF is secreted from the hepatocytes to the biliary canaliculi, and the secreted CLF moves to the bile ducts, namely that the biliary canaliculi and the bile ducts are functionally connected. […]
One day after the inoculation of the primary hepatocytes, the medium was exchanged for the BIM-2 medium. […] The appearances of the cells 2 hours, 24 hours, and 72 hours after the addition of the CLF solution were observed through a phase-contrast microscope and a fluorescence microscope (FIG. 3A). […]

Data set [4] concerns bile ducts formed from the rCLiPs cocultured with human hepatocytes. Kind of data set: CLF transfer to bile ducts in coculture of rCLiP bile ducts and human hepatocytes. The data set is classed as in vitro ADME. As to conditions: human hepatocytes cocultured 3 days; 30 min incubation in HBSS containing CLF; observed immediately, 4 and 24 hours after washing; excitation 470 nm; FIG. 6A.
Excerpt: as §1
One day after the inoculation of the human hepatocytes, the medium was exchanged for BIM-2 medium. […] After the incubation, the cells were washed with MSS not containing CLF, and the appearances of the cells immediately, 4 hours, and 24 hours after washing were observed through a phase-contrast microscope and a fluorescence microscope (FIG. 6A). […]

Molecules are shown by their SMILES.

Regarding `CC(CCC(=O)NC(CCCCNC(=S)Nc1ccc(-c2c3ccc(=O)cc-3oc3cc(O)ccc23)c(C(=O)O)c1)C(=O)O)C1CCC2C3C(O)CC4CC(O)CCC4(C)C3CC(O)C12C` (stereo not shown) [CLF, cholyl-lysyl-fluorescein], the “CLF fluorescence in bile ducts” value in data set [1] was “fluorescence was not, meanwhile, detected”; in data set [2], “fluorescence was not, meanwhile, detected”. Also, the “CLF fluorescence in bile ducts (secretion to biliary canaliculi and movement to bile ducts)” value in data set [3] and in data set [4] was “fluorescence was detected from the bile ducts” each time.
